Data on 14 compounds can be found in patent US20250205342A1, “IRAK DEGRADERS AND USES THEREOF” (Kymera Therapeutics, Inc., priority 2022, published 2025).

Test [1] concerns the target T1, IRAK4 (Homo sapiens, UniProt Q9NWZ3).
T1 sequence (Q9NWZ3 1-460): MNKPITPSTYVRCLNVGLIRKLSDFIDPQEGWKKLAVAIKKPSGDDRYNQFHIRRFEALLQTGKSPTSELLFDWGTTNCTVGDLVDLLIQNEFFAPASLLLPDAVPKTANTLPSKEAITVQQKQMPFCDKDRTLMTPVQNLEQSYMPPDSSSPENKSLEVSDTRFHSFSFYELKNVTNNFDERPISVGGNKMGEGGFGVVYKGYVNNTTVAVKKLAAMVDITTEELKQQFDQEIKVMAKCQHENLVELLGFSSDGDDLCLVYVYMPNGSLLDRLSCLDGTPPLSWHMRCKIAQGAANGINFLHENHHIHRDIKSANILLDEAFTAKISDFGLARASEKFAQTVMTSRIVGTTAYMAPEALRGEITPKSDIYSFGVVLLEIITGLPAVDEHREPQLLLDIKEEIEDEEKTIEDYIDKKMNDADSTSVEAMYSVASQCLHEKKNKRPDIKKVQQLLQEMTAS
Nature of the test: hPBMC IRAK4 degradation flow assay (monocytes). It counts as cell-based. Set-up: endogenous in cells; host or cells: human PBMCs (monocytes, CD14 positive gate). Particulars: CD14 positive monocytes, 20 h, read-out: hPBMC monocyte DC50 at 20 h. The gist of the method: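 Thawed human PBMCs treated 20 h (or 4 h) at 37° C. with 10-point 5-fold compound dilutions, 0.1% DMSO, then fixed, methanol-permeabilized and stained for IRAK4 and lineage markers by flow, with monocytes gated CD14+. IRAK4 MFI normalized to DMSO and 10 µM control; DC50 and max degradation from 4-parameter logistic fit.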

Test [2] addresses T1, IRAK4. In words: IRAK4 degradation in OCI-LY10 (MSD, Meso Scale Discovery). Particulars: OCI-LY10 cells, 24 h. It counts as cell-based. Set-up: endogenous in cells; host or cells: OCI-LY10. Summed up: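 OCI-LY10 cells (300,000/well) were treated with an 8-point 1:3 series (top 1 to 10 μM) for 4 to 24 h at 37 °C. IRAK4 in RIPA lysates was quantified by MSD sandwich immunoassay with two anti-IRAK4 antibodies. DC50 was fitted with a three-parameter logistic equation.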

The DC50 is the midpoint of the concentration-degradation curve.

With `O=C(O)Cn1cc(NC(=O)[C@H]2CCCN(c3cncc(OCCOCCOCCNC[C@H]4CC[C@H](n5cc(NC(=O)c6cnn7ccc(N8C[C@H]9C[C@@H]8CO9)nc67)c(C(F)F)n5)CC4)c3)C2)ccc1=O` [Compound I-44], the DC50 on IRAK4 [1] and on IRAK4 [2] was greater than 10 µM each time.
Regarding `O=C(O)Cn1cc(NC(=O)c2cc(CCCCCCCCCNC[C@H]3CC[C@H](n4cc(NC(=O)c5cnn6ccc(N7C[C@H]8C[C@@H]7CO8)nc56)c(C(F)F)n4)CC3)cc(-c3cccnc3)c2)ccc1=O` [Compound I-74], the DC50 at IRAK4 [1] and at IRAK4 [2] was greater than 10 µM in each case.
In the case of `CCOC(=O)Cn1cc(NC(=O)c2cccc3c2ccn3CCCCCCNC[C@H]2CC[C@H](n3cc(NC(=O)c4cnn5ccc(N6C[C@H]7C[C@@H]6CO7)nc45)c(C(F)F)n3)CC2)ccc1=O` [Compound I-61], the DC50 on IRAK4 [1] was 1 to 10 µM; on IRAK4 [2], greater than 10 µM.
On the same counts, the results for `CCOC(=O)Cn1cc(NC(=O)c2cccc(-c3cncc(CCCNC[C@H]4CC[C@H](n5cc(NC(=O)c6cnn7ccc(N8C[C@H]9C[C@@H]8CO9)nc67)c(C(F)F)n5)CC4)c3)c2)ccc1=O` [Compound I-91] are greater than 10 µM and greater than 10 µM.
On the same counts, the results for `O=C(O)Cn1cc(NC(=O)[C@H]2CCCN(c3cncc(NCCOCCOCCNC[C@H]4CC[C@H](n5cc(NC(=O)c6cnn7ccc(N8C[C@H]9C[C@@H]8CO9)nc67)c(C(F)F)n5)CC4)c3)C2)ccc1=O` [Compound I-2] are greater than 10 µM and greater than 10 µM.
On the same counts, the results for `CCOC(=O)Cn1cc(NC(=O)[C@H]2CCCN(c3cncc(C4CCN(C[C@H]5CC[C@H](n6cc(NC(=O)c7cnn8ccc(N9C[C@H]%10C[C@@H]9CO%10)nc78)c(C(F)F)n6)CC5)CC4)c3)C2)ccc1=O` [Compound I-18] are 1 to 10 µM and greater than 10 µM.
As for `CCOC(=O)Cn1cc(NC(=O)c2cc(CCCCCCNC[C@H]3CC[C@H](n4cc(NC(=O)c5cnn6ccc(N7C[C@H]8C[C@@H]7CO8)nc56)c(C(F)F)n4)CC3)cc(-c3cccnc3)c2)ccc1=O` [Compound I-98], the DC50 on IRAK4 [1] and at IRAK4 [2] was greater than 10 µM each time.
For the compound `CCOC(=O)Cn1cc(NC(=O)c2cccc3c2ccn3CCCNC[C@H]2CC[C@H](n3cc(NC(=O)c4cnn5ccc(N6C[C@H]7C[C@@H]6CO7)nc45)c(C(F)F)n3)CC2)ccc1=O` [Compound I-81], the DC50 on IRAK4 [1] and on IRAK4 [2] was greater than 10 µM throughout.
Consider `O=C(O)Cn1cc(NC(=O)[C@H]2CCCN(c3cncc(CCCCCCNC[C@H]4CC[C@H](n5cc(NC(=O)c6cnn7ccc(N8C[C@H]9C[C@@H]8CO9)nc67)c(C(F)F)n5)CC4)c3)C2)ccc1=O` [Compound I-27], for which the DC50 at IRAK4 [1] and at IRAK4 [2] was greater than 10 µM throughout.
Take `COc1cc(-c2ccc(CCCCCCCCCNC[C@H]3CC[C@H](n4cc(NC(=O)c5cnn6ccc(N7C[C@H]8C[C@@H]7CO8)nc56)c(C(F)F)n4)CC3)cc2)ccc1C(=O)Nc1ccc(=O)n(CC(=O)O)c1` [Compound I-62]: the DC50 on IRAK4 [1] and at IRAK4 [2] was greater than 10 µM throughout.
For the compound `CCOC(=O)Cn1cc(NC(=O)c2cccc3c2ccn3CCCCCCNC[C@H]2CC[C@H](n3cc4cc(NC(=O)c5cccc(C(F)(F)F)n5)c(C(C)(C)O)cc4n3)CC2)ccc1=O` [Compound I-71], the DC50 on IRAK4 [1] and at IRAK4 [2] was greater than 10 µM in each case.
Consider `COc1cc2nn([C@H]3CC[C@H](CNCCCCc4cncc(N5CCC[C@H](C(=O)Nc6ccc(=O)n(CC(=O)O)c6)C5)c4)CC3)cc2cc1NC(=O)c1cccc(C(F)(F)F)n1` [Compound I-25], for which the half-maximal degradation concentration (DC50) at IRAK4 [1] and on IRAK4 [2] was greater than 10 µM throughout.
On to `COC(=O)Cn1cc(NC(=O)c2cccc(-c3cncc(CCCCCCCCCNC[C@H]4CC[C@H](n5cc6cc(NC(=O)c7cccc(C(F)(F)F)n7)c(C(C)(C)O)cc6n5)CC4)c3)c2)ccc1=O` [Compound I-49], for which the half-maximal degradation concentration (DC50) on IRAK4 [1] and on IRAK4 [2] was 0.1 to 1 µM throughout.
As to `CC(C)(O)c1cc2nn([C@H]3CC[C@H](CNCCCCCCCCCn4ccc5c(C(=O)Nc6ccc(=O)n(CC(=O)O)c6)cccc54)CC3)cc2cc1NC(=O)c1cccc(C(F)(F)F)n1` [Compound I-68], the values for the DC50 on IRAK4 [1] and at IRAK4 [2] were 1 to 10 µM and greater than 10 µM, respectively.
